# Source: US6090787A, “Antithrombotic agents” (Eli Lilly and Company, priority 1999, dated 2000)
# Square brackets hold non-standard residues; d marks the D form. Peptide text beside a SMILES is read from it. dPip = O=C(O)[C@H]1CCCCN1; Sar = CNCC(=O)O
# Columns and labels:
# human plasma [1] = assay: Human plasma anticoagulation, activated partial thromboplastin time (APTT); details: concentration required to double the APTT, linear extrapolation
# Summary of the method: (§1)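 Compounds added over a wide concentration range to citrated plasma on a coagulation instrument. PT: saline plus Thromboplastin-C; APTT: 120 s incubation with Actin reagent, then CaCl2 (0.02 M); TT: saline plus bovine thrombin (10 NIH units/mL). Concentration doubling clotting time estimated by linear extrapolation.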
# human plasma [2] = assay: Human plasma anticoagulation, prothrombin time (PT); details: concentration required to double the PT, linear extrapolation
# Summary of the method: as §1
# human plasma [3] = assay: Human plasma anticoagulation, thrombin time (TT); details: concentration required to double the thrombin time, linear extrapolation
# Summary of the method: as §1
# [4] = target: T1, tissue plasminogen activator (t-PA) (Homo sapiens, UniProt P00750); assay: Fibrinolytic protease selectivity, Kass, t-PA chromogenic assay; assay type: biochemical; details: apparent association constant
# T1 construct: purchased American Diagnostica, Greenwich, Conn
# Summary of the method: (§2)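 Carried out like the human thrombin procedure, with chromogenic substrates H-D-Ile-Pro-Arg-p-nitroanilide for t-PA (single chain nt-PA or mt-PA6) and H-D-Val-Leu-Lys-p-nitroanilide for human plasmin. Inhibition of amidase activity gives association constants.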
# Human plasmin = target: T2, Human plasmin (Homo sapiens, UniProt P00747); assay: Fibrinolytic protease selectivity, Kass, plasmin chromogenic assay; assay type: biochemical; details: apparent association constant
# T2 construct: Human plasmin is purchased from Boehringer Mannheim; purchased Boehringer Mannheim, Indianapolis, Indiana
# Summary of the method: as §2
# factor Xa = target: T3, factor Xa (Homo sapiens, UniProt P00742); assay: Serine protease selectivity, Kass, factor Xa chromogenic assay; assay type: biochemical; details: apparent association constant
# T3 construct: Human factors X, Xa, IXa, XIa, and XIIa are purchased from Enzyme Research Laboratories; purchased Enzyme Research Laboratories, South Bend, Ind
# Summary of the method: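 Run as the human thrombin chromogenic assay. Human factor Xa used N-Benzoyl-Ile-Glu-Gly-Arg-p-nitroanilide as substrate. Bovine trypsin used N-Benzoyl-Phe-Val-Arg-p-nitroanilide.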
# T1 sequence (P00750 36-562): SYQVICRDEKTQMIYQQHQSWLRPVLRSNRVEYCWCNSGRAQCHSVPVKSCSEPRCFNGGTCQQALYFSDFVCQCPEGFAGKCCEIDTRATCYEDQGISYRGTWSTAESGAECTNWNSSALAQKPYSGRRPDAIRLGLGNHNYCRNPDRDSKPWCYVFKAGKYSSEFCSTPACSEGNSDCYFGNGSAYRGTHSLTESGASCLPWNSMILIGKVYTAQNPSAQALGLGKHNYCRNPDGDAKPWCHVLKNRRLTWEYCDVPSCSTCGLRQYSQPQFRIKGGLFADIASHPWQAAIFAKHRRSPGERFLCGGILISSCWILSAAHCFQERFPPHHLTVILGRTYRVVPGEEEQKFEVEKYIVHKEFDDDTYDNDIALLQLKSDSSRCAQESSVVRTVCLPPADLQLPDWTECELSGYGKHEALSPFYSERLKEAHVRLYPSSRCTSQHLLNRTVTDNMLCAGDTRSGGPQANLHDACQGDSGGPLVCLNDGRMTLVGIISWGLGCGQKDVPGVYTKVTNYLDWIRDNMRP
# T2 sequence (P00747 581-810 limits assumed): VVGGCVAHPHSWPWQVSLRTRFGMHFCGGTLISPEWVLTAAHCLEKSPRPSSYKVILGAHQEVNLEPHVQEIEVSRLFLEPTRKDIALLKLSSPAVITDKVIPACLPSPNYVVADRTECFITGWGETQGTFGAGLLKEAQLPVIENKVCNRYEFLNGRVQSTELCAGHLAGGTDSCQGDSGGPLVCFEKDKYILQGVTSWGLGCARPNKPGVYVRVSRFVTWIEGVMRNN
# T2 sequence (P00747 97-580 partner limits assumed): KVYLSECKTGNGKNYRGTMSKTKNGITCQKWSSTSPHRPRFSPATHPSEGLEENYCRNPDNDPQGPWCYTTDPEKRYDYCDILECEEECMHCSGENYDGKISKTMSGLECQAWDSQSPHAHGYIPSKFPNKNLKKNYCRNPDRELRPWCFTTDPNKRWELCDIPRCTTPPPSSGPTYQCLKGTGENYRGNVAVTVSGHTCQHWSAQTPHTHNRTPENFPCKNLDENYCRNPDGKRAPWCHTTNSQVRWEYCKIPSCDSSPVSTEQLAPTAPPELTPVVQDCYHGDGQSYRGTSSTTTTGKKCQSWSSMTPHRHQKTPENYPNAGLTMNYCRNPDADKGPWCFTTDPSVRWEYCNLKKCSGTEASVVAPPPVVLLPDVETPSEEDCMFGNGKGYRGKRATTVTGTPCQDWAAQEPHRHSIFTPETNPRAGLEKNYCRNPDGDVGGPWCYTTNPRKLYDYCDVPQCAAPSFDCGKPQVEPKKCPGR
# T3 sequence (P00742 235-488 limits assumed): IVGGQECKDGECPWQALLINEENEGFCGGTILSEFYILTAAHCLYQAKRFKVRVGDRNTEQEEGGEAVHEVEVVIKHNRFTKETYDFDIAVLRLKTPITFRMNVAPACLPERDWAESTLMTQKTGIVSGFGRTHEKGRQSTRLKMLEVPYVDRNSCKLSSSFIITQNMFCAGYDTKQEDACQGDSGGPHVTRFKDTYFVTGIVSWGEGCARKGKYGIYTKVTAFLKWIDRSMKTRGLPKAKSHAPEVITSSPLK
# T3 sequence (P00742 41-179 partner limits assumed): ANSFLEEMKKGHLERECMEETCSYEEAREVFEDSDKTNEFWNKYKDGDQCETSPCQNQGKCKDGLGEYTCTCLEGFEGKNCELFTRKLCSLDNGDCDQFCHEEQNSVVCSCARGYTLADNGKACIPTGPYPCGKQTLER
Compound,Human Plasma Anticoagulation 2 × Clotting time APTT (human plasma [1]),Human Plasma Anticoagulation 2 × Clotting time PT (human plasma [2]),Human Plasma Anticoagulation 2 × Clotting time TT (human plasma [3]) [ng/mL],Enzyme Kass t-PA [4] [L/mol × 10^6],Enzyme Kass Plasmin (Human plasmin) [L/mol × 10^6],Enzyme Kass Xa (factor Xa) [L/mol × 10^6]
"CN(CC(=O)N[C@H](C=O)CCCNC(=N)N)C(=O)[C@H]1CCCCN1.Cl.Cl [Example 1, D-homoprolyl-N-methylglycyl-L-argininal dihydrochloride] (H-[dPip]-[Sar]-Arg-aldehyde)","2,800 ng/mL","4,800 ng/mL",160,0.0039,0.031,0.13
"CC(C)CCN(CC(=O)N[C@H](C=O)CCCN=C(N)N)C(=O)[C@H]1CCCCN1.Cl.Cl [Example 6, D--hPro--N(isoamyl)Gly--ArgH.2HCl]","3,200 ng/mL","2,600 ng/mL",170,0.004,0.059,0.071
"Cl.Cl.N=C(N)NCCC[C@@H](C=O)NC(=O)CN(CCc1ccccc1)C(=O)[C@H]1CCCCN1 [Example 8, D-homoprolyl-N-(2-phenylethyl)glycyl-L-argininal dihydrochloride]","6,600 ng/mL","2,000 ng/mL",64,0.009,0.44,4.4
